Measurements published in patent US7803765B2, “Methods of constructing biodiverse gene fragment libraries and biological modulators isolated therefrom” (Phylogica Limited, priority 2004, dated 2010).
Where no end group is shown, it is not given here.

T1: Id1/E47 interaction (Homo sapiens, UniProt P15923+P41134)
T1 construct: expressed in transfected cells; host or cells: Saccharomyces cerevisiae strain PRT480
T1 sequence (P41134 1-155): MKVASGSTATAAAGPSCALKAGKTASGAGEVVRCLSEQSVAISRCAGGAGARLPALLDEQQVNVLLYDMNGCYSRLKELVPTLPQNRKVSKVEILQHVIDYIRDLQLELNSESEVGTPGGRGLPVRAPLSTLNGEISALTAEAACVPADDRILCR
T1 sequence (P15923 1-651 isoform P15923-2): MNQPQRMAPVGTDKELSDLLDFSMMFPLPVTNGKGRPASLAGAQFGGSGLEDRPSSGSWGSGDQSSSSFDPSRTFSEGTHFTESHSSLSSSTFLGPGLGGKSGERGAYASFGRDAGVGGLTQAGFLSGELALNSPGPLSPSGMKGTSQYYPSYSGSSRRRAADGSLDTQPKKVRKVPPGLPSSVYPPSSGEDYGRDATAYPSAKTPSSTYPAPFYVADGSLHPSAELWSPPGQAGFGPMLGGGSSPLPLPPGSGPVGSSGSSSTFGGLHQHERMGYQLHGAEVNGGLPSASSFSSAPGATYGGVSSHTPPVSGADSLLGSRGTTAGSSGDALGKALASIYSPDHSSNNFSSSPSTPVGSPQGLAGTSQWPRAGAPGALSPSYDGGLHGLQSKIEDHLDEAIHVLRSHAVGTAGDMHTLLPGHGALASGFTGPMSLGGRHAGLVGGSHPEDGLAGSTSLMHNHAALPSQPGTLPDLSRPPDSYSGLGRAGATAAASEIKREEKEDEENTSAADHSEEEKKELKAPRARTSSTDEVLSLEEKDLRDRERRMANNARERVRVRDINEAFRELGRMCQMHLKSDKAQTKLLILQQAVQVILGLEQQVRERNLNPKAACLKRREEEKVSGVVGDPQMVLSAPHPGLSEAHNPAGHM

B1: BGF 35: SCL/E47 peptide blocker; fusion peptide SEQ ID NO: 79, fragment-encoded SEQ ID NO: 81; H. influenzae fragment (peptide)
chain: MGKPIPNPLLGLDSTQAMGAPPKKKRKVAEFQGRRRQGLSINQWLEKYGYIEMQGNETFKLAVRELSNVVEETLLANNLDKKDLDWLVVVVLVV

Columns and labels:
[1] = molecular target: T2, SCL/E2.22F interaction (Homo sapiens, UniProt P15884+P17542); assay: specificity of blocking: two-hybrid in strain PRT480 expressing E2.22F and SCL; assay type: cell-based; details: yeast strain PRT480, specificity control
T2 construct: expressed in transfected cells; host or cells: Saccharomyces cerevisiae strain PRT480
T2 sequence (P17542 whole entry): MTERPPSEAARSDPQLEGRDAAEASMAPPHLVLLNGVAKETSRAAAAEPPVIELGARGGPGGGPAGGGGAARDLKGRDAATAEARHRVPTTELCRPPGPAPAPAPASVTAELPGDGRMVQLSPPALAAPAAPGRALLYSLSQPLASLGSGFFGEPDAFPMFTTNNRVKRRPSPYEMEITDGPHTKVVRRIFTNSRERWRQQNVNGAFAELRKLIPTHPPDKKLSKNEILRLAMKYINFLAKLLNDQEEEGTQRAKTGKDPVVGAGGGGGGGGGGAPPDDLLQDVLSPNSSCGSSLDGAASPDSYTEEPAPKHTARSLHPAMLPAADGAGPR
T2 sequence (P15884 whole entry): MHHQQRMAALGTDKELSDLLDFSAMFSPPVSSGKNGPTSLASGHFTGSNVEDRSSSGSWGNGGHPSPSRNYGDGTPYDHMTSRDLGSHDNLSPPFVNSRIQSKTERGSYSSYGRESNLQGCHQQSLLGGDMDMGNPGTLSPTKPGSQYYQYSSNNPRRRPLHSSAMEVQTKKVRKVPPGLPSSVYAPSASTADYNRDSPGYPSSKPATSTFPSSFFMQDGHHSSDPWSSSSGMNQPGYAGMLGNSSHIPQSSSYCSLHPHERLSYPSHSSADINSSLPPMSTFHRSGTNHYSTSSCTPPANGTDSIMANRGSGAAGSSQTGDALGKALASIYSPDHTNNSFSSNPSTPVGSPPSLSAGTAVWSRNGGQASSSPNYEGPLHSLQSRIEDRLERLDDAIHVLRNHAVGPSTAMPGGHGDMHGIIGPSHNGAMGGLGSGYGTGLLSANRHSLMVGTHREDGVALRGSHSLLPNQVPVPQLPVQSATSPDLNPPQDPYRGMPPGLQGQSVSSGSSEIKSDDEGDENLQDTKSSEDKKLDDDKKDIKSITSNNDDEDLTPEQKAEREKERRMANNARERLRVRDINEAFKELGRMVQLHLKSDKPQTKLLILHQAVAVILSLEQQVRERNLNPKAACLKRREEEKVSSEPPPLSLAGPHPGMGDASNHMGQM
Description: (§1) Subsequently, the specificity of blocking was assayed, by mating those strains that did recapitulate the blocked phenotype into a strain PRT480 expressing two interacting proteins selected from the group consisting of: (i) E2,2 2F and SCL; and (ii) ID and E47.

[2] = molecular target: T1, Id1/E47 interaction; assay: specificity of blocking: two-hybrid in strain PRT480 expressing ID and E47; assay type: cell-based; details: yeast strain PRT480, specificity control
Description: as §1

[3] = test system: SCL/E47 interaction; assay: reverse two-hybrid screen for antagonists of the SCL/E47 interaction in yeast; assay type: cell-based; details: re-screened clones
Text: The nucleic acid encoding the E47 protein was cloned into the bait vector pDD (SEQ NO: 61; FIG. 6) in operable connection with the LexA DNA binding domain. The pDD vector also contains a nucleic acid encoding the HIS3 gene (FIG. 6).
These vectors were transformed into the PRT 480 yeast strain (which contains two LexA-CYH2 chimeric reporter genes and two LexA-URA3 counter selectable reporter genes).
The process of screening the library is represented schematically in FIG. 7. […] Approximately 300,000 diploids were plated onto 30 cm plates containing complete synthetic media lacking histidine and tryptophan (ie., HW media), and supplemented with 0.06% (w/v) galactose/0.04% 5-FOA and glucose.
The FOA-resistant colonies were replica-plated from the master-plate onto plates containing HWU media, or media lacking histidine, tryptophan and leucine (ie. HWL media). The replica-plate media also contained various concentrations of galactose.
Library plasmids were re-transformed into strain PRT51, and the resultant yeast cells were again mated with strain PRT 480 SCL/E47 haploids. Diploids were re-screened for their ability to block the SCL/E47 interaction, by plating in the forward direction on plates containing HWU or HWL media supplemented with various concentrations of galactose.

[4] = test system: monoclonal antibody 2C7; assay: competition DELFIA of 2C7pan clones binding to 2C7; details: for inhibition of clone binding to 2C7 by recombinant Der p 1: competitor recombinant Der p 1
Text: Competition DELIFAs were then used to study the interaction between the monoclonal antibody and the peptides identified, using recombinant Der p 1 or the epitope of the 2C7 antibody (GST-P1fragment 98-140 […]) as a competitor.

[5] = test system: Der p 1; assay: immunization of mice with 2C7pan phage clones, serum tested by DELFIA and competitive DELFIA; assay type: in vivo; details: for anti-Der p 1 immune response in immunized mice: 10^11 phage particles in Freunds complete adjuvant, bled after first booster, DELFIA; for inhibition of immune serum binding to Der p 1 by recombinant Der p 1: competitive DELFIA, BSA as negative control
Description: The clones, 2C7pan clones 9, 26 and 42, described in Example 8 were then used to immunize mice. Phage were purified by CsCl gradient centrifugation and then used to immunize mice. Each injection consisted of 10^11 phage particles suspended in Freunds complete adjuvant. After the first booster mice were bled and tested by DELFIA for binding to Der p 1. Furthermore, the specificity of the immune response for Der p 1 was tested using competitive DELFIA.

[6] = test system: anti-Der p 1 monoclonal antibody 2C7; assay: T7-DELFIA binding of phage-displayed peptides to panning antibody 2C7; details: 50 μl lysate in the standard T7-DELFIA; 500 ng/well 2C7
Description: The monoclonal antibody (approximately 10 μg) was adsorbed to a Petri dish and the amplified phage display library brought into contact with the adsorbed antibody.
The eluate after round three was amplified and ninety-nine individual T7 clones were tested for binding to the panning antibody 2C7 using a dissociation-enhanced ianthinide fluoroimmunoassay (DELFIA) with 500 ng/well 2C7. Assays were performed essentially according to manufacturer's instructions (Perkin Elmer Life Sciences). The first ligand used in the DELFIA was T7lysate (ie the library) (1:2 in assay buffer); second ligand: SIGMA biotinylated anti-T7 monoclonal antibody 1:10,000 (mouse), Strep-Eur+enhancement solution).

Molecule | Target interaction SCL/E2.22F blocked [1] | Target interaction Id1/E47 blocked [2] | Target interaction SCL/E47 blocked [3] | inhibition of clone binding to 2C7 by GST-P1fragment 98-140 ([4]; competitor GST-P1fragment 98-140 (2C7 epitope)) | inhibition of clone binding to 2C7 by recombinant Der p 1 [4] | anti-Der p 1 immune response in immunized mice [5] | inhibition of immune serum binding to Der p 1 by recombinant Der p 1 [5] | TRF (time resolved fluorometry) binding to 2C7 [6]
BGF 24: SCL/E47 peptide blocker; fusion peptide SEQ ID NO: 75, fragment-encoded SEQ ID NO: 77; T. maritima fragment (MGKPIPNPLLGLDSTQAMGAPPKKKRKVAEFRSDYKDDDDKLIKHHWVLSIITTASR) | − | − | + |  |  |  |  | 
GDPN S S S V D K L G Y W R V T E S S N E (GDPNSSSVDKLGYWRVTESSNE; numbers in words are those of the source; also: displayed on T7 phage) [Clone 2c7pan42] |  |  |  | higher levels of inhibition | only partially inhibited | an anti-Der p 1 immune response was induced | inhibited by the addition of recombinant Der p 1 | 64000 TRF
GDPN S R G K S R E Y L S (GDPNSRGKSREYLS; numbers in words are those of the source; also: displayed on T7 phage) [Clone 2c7pan14] |  |  |  |  | specifically inhibited |  |  | 1800 TRF
GDPN S S T S P R (GDPNSSTSPR; numbers in words are those of the source; also: displayed on T7 phage) [Clone 2c7pan8] |  |  |  |  | specifically inhibited |  |  | 1900 TRF
GDPN S A S G T A (GDPNSASGTA; numbers in words are those of the source; also: displayed on T7 phage) [Clone 2c7pan9] |  |  |  |  | specifically inhibited | an anti-Der p 1 immune response was induced | inhibited by the addition of recombinant Der p 1 | 17000 TRF
GDP R T H R (GDPRTHR; numbers in words are those of the source; also: displayed on T7 phage) [Clone 2c7pan26] |  |  |  |  | specifically inhibited | an anti-Der p 1 immune response was induced | inhibited by the addition of recombinant Der p 1 | 8500 TRF
BGF 06: SCL/E47 peptide blocker; fusion peptide SEQ ID NO: 67, fragment-encoded SEQ ID NO: 69; A. aeolicus fragment (MGKPIPNPLLGLDSTQAMGAPPKKKRKVAEFRSDYKDDDDKAYHIIAVCFLIKVS) | − | − | + |  |  |  |  | 
BGF 05: non-specific blocker clone; fusion peptide SEQ ID NO: 63, fragment-encoded SEQ ID NO: 65; H. influenzae fragment (MGKPIPNPLLGLDSTQAMGAPPKKKRKVAEFARTTTTRLINQSVVRKIWLYRDAR) | + | + | + |  |  |  |  | 
BGF 13: SCL/E47 peptide blocker; fusion peptide SEQ ID NO: 71, fragment-encoded SEQ ID NO: 73; H. influenzae fragment (MGKPIPNPLLGLDSTQAMGAPPKKKRKVAEFGFCSNQMREM) | − | − | + |  |  |  |  | 
B1 | − | − | + |  |  |  |  | 
